Key:
[1] = biological target: T1, human recombinant serotonin (5-Hydroxytryptamine) 5-HT2A receptor (Homo sapiens, UniProt P28223); experiment: Serotonin 5-HT2A radioligand binding ([3H]Ketanserin)
T1 construct: expressed in transfected cells; host or cells: Chinese hamster ovary (CHO-K1) cells
Description: (1997), 68:1998] in a 50 mM Tris-HCl buffer, pH 7.4, was used. Compounds of the invention were incubated with 0.5 nM [^3H]Ketanserin for 60 min at 25° C. Non-specific binding was estimated in the presence of 1 μM Mianserin. Receptor proteins were filtered and washed, the filters were then counted to determine [^3H]Ketanserin specifically bound. Compounds were screened at 1 μM or lower, using 1% DMSO as vehicle. Biochemical assay results are presented as the percent inhibition of specific binding in Table 4.

[2] = biological target: human recombinant dopamine D2L receptor (Homo sapiens, UniProt P14416); experiment: Dopamine D2L radioligand binding ([3H]Spiperone)
Description: To evaluate in radioligand binding assays the activity of compounds of the invention, human recombinant dopamine D2L receptor expressed in Chinese hamster ovary (CHO) cells [Grandy, D. K. et al., Proc. Natl. Acad. Sci. USA. (1989), 86:9762; Hayes, G. et al., Mol. Endocrinol. […] Compounds of the invention were incubated with 0.16 nM [^3H]Spiperone for 120 min at 25° C. Non-specific binding was estimated in the presence of 10 μM Haloperidol. Receptor proteins were filtered and washed, the filters were then counted to determine [^3H]Spiperone specifically bound. Compounds were screened at 1 μM or lower, using 1% DMSO as vehicle. Biochemical assay results are presented as the percent inhibition of specific binding in Table 3.

[3] = biological target: T2, human recombinant serotonin (5-Hydroxytryptamine) 5-HT6 receptor (Homo sapiens, UniProt P50406); experiment: Serotonin 5-HT6 radioligand binding ([3H]LSD)
T2 construct: expressed in transfected cells; host or cells: human HeLa cells
Description: Compounds of the invention were incubated with 1.5 nM [3H]Lysergic acid diethylamide (LSD) for 120 min at 37° C. […] Receptor proteins were filtered and washed, the filters were then counted to determine [3H]LSD specifically bound. Compounds were screened at 1 μM or lower, using 1% DMSO as vehicle. Biochemical assay results are presented as the percent inhibition of specific binding in Table 4.

[4] = biological target: T3, human recombinant serotonin (5-Hydroxytryptamine) 5-HT2C receptor (Homo sapiens, UniProt P28335); experiment: Serotonin 5-HT2C radioligand binding ([3H]Mesulergine)
T3 construct: expressed in transfected cells; host or cells: Chinese hamster ovary (CHO-K1) cells
T3 sequence (P28335 33-458): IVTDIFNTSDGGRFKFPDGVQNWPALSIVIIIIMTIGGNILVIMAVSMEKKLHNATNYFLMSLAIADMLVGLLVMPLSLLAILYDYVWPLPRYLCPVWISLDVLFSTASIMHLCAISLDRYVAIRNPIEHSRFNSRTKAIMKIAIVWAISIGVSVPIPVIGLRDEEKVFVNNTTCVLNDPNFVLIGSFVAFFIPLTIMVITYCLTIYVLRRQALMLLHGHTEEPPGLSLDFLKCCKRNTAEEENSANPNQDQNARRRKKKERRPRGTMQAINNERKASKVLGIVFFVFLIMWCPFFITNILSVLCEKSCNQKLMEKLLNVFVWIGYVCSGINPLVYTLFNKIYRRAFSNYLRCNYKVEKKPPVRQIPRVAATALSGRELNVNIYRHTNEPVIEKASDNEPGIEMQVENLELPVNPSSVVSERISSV
Description: (1997), 69:1449] in a modified Tris-HCl buffer (50 mM Tris-HCl, pH 7.4, 0.1% Ascorbic Acid, 10 μM Pargyline) was used. Compounds of the invention were incubated with 1 nM [^3H]Mesulergine for 60 min at 25° C. Non-specific binding was estimated in the presence of 1 μM Mianserin. Receptor proteins were filtered and washed, the filters were then counted to determine [^3H]Mesulergine specifically bound. Compounds were screened at 1 μM or lower, using 1% DMSO as vehicle. Biochemical assay results are presented as the percent inhibition of specific binding in Table 4.

[5] = biological target: T4, human recombinant adrenergic α1D receptor (Homo sapiens, UniProt P25100); experiment: Adrenergic α1D radioligand binding ([3H]Prozosin)
T4 construct: expressed in transfected cells; host or cells: human embryonic kidney (HEK-293) cells
T4 sequence (P25100 1-572): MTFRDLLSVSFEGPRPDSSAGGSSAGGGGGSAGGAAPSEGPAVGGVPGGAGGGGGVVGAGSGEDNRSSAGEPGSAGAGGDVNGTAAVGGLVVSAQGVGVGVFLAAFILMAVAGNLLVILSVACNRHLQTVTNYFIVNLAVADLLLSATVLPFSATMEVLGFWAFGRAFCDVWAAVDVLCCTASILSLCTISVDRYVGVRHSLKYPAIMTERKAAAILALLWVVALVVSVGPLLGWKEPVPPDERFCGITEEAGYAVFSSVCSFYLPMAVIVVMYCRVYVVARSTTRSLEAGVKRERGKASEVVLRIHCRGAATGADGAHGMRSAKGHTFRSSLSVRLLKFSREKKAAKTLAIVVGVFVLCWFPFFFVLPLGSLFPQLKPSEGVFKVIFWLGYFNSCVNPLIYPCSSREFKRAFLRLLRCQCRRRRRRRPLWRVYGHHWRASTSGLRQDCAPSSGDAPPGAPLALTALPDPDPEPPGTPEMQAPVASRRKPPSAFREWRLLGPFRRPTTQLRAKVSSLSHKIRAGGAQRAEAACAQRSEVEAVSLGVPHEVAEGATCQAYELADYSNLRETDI
Description: Compounds of invention were incubated with 0.6 nM [^3H]Prozosin for 60 min at 25° C. Non-specific binding was estimated in the presence of 10 μM phentolamine. Receptor proteins were filtered and washed, the filters were then counted to determine [^3H]Prozosin specifically bound. Compounds were screened at 1 μM or lower, using 1% DMSO as vehicle. Compounds of the invention were tested in this biochemical assay. Biochemical assay results for representative compounds were presented as the percent inhibition of specific binding in Table 3.

T1 sequence (P28223 whole entry): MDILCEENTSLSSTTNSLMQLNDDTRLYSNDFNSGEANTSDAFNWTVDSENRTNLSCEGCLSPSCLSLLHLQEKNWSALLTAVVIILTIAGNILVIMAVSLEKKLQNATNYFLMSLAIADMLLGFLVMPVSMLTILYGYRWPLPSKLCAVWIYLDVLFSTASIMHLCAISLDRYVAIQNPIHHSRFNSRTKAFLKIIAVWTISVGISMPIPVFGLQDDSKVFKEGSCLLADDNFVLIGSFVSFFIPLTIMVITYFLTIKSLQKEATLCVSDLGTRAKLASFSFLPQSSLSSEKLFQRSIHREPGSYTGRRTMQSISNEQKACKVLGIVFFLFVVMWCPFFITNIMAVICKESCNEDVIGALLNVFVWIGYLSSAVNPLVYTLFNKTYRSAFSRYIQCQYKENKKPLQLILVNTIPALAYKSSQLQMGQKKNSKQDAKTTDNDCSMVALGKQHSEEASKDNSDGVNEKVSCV
Sequence of human recombinant dopamine D2L receptor (P14416 whole entry): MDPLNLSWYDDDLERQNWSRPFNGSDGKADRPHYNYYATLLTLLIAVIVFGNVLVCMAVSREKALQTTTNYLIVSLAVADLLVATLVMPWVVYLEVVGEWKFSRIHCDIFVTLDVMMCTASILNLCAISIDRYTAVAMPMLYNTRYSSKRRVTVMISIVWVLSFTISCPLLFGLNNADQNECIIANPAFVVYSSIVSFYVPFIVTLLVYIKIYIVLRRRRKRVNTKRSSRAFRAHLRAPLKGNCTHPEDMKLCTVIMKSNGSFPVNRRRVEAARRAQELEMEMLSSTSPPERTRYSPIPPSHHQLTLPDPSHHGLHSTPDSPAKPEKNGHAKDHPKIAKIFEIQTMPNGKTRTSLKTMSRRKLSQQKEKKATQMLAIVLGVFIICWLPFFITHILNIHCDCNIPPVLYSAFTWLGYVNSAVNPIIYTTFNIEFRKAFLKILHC
T2 sequence (P50406 whole entry): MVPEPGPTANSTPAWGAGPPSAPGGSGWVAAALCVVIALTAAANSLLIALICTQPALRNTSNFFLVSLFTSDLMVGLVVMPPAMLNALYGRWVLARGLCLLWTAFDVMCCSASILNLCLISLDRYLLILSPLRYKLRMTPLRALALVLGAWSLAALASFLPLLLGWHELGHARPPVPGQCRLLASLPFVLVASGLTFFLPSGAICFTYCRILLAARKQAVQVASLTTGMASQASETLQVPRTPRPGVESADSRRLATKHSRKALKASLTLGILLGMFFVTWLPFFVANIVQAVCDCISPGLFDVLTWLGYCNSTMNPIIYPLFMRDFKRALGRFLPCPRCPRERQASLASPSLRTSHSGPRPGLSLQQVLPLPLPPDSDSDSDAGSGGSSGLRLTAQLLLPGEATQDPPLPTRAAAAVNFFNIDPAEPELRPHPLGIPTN

SMILES: Cc1ccc(CCn2c3c(c4cccnc42)C2CCCN2CC3)cn1 (stereo not shown) [Compound 34, 7-(2-(6-methylpyridin-3-yl)ethyl)-2,3,5,6,7,1c-hexahydro-1H-pyrido[3′,2′:4,5]pyrrolo[2,3-g]indolizine]
- Percent Inhibition of ligand binding Serotonin 5-HT2A ([1]; 0.1 μM ligand concentration): 15%
- Percent Inhibition of ligand binding Dopamine D2L ([2]; 0.1 μM ligand conc.): 6%
- Percent Inhibition of ligand binding Serotonin 5-HT6 ([3]; 0.1 μM ligand concentration): 5%
- Percent Inhibition of ligand binding Serotonin 5-HT2C ([4]; 0.1 μM ligand concentration): 7%

SMILES: O=C(Cn1c2c(c3cccnc31)CN1CCCC1C2)N1CCCCC1 (stereo not shown) [Compound 37, 1-(piperidin-1-yl)-2-(8,9,9a,10-tetrahydro-5H-pyrido[3′,2′:4,5]pyrrolo[3,2-f]indolizin-11(7H)-yl)ethanone]
- Percent Inhibition of ligand binding Serotonin 5-HT2A ([1]; 0.1 μM ligand concentration): 33%
- Percent Inhibition of ligand binding Dopamine D2L ([2]; 0.1 μM ligand conc.): −5%
- Percent Inhibition of ligand binding Serotonin 5-HT6 ([3]; 0.1 μM ligand concentration): −9%
- Percent Inhibition of ligand binding Adrenergic α1D ([5]; 0.1 μM ligand conc.): 6%
- Percent Inhibition of ligand binding Serotonin 5-HT2C ([4]; 0.1 μM ligand concentration): 9%

SMILES: C/C(=C\n1c2c(c3cc(C)ccc31)C1CCCN1CC2)c1ccc(C)nc1 (stereo not shown) [Compound 32, (E)-10-methyl-7-(2-(6-methylpyridin-3-yl)prop-1-enyl)-2,3,5,6,7,11c-hexahydro-1H-indolizino[7,8-b]indole]
- Percent Inhibition of ligand binding Serotonin 5-HT2A ([1]; 0.1 μM ligand concentration): 50%
- Percent Inhibition of ligand binding Dopamine D2L ([2]; 0.1 μM ligand conc.): 3%
- Percent Inhibition of ligand binding Serotonin 5-HT6 ([3]; 0.1 μM ligand concentration): 25%
- Percent Inhibition of ligand binding Serotonin 5-HT2C ([4]; 0.1 μM ligand concentration): 26%

SMILES: Cc1cnc2c(c1)c1c(n2CCc2ccc(C)nc2)CCN2CCCC12 (stereo not shown) [Compound 33, 10-methyl-7-(2-(6-methylpyridin-3-yl)ethyl)-2,3,5,6,7,1c-hexahydro-1H-pyrido[3′,2′:4,5]pyrrolo[2,3-g]indolizine]
- Percent Inhibition of ligand binding Serotonin 5-HT2A ([1]; 0.1 μM ligand concentration): 29%
- Percent Inhibition of ligand binding Dopamine D2L ([2]; 0.1 μM ligand conc.): 1%
- Percent Inhibition of ligand binding Serotonin 5-HT6 ([3]; 0.1 μM ligand concentration): 20%
- Percent Inhibition of ligand binding Serotonin 5-HT2C ([4]; 0.1 μM ligand concentration): 13%

SMILES: O=C(Cn1c2c(c3cccnc31)C1CCCN1CC2)N1CCCCC1 (stereo not shown) [Compound 38, 1-(piperidin-1-yl)-2-(2,3,5,6-tetrahydro-1H-pyrido[3′,2′:4,5]pyrrolo[2,3-g]indolizin-7(11cH)-yl)ethanone]
- Percent Inhibition of ligand binding Serotonin 5-HT2A ([1]; 0.1 μM ligand concentration): 19%
- Percent Inhibition of ligand binding Dopamine D2L ([2]; 0.1 μM ligand conc.): 24%
- Percent Inhibition of ligand binding Serotonin 5-HT6 ([3]; 0.1 μM ligand concentration): −8%
- Percent Inhibition of ligand binding Adrenergic α1D ([5]; 0.1 μM ligand conc.): 4%
- Percent Inhibition of ligand binding Serotonin 5-HT2C ([4]; 0.1 μM ligand concentration): 16%

SMILES: Fc1ccc(CCn2c3c(c4cc(Cl)ccc42)C2CCCN2CC3)cc1 (stereo not shown) [Compound 1, 7-(4-fluorophenethyl)-10-chloro-2,3,5,6,7,11c-hexahydro-1H-indolizino[7,8-b]indole]
- Percent Inhibition of ligand binding Serotonin 5-HT2A ([1]; 1 μM ligand concentration): 11%
- Percent Inhibition of ligand binding Dopamine D2L ([2]; 1 μM ligand conc.): 9%
- Percent Inhibition of ligand binding Serotonin 5-HT6 ([3]; 1 μM ligand concentration): 19%
- Percent Inhibition of ligand binding Adrenergic α1D ([5]; 1 μM ligand conc.): 15%
- Percent Inhibition of ligand binding Serotonin 5-HT2C ([4]; 1 μM ligand concentration): 44%

SMILES: Cc1ccc(CCn2c3c(c4cccnc42)CN2CCCC2C3)cn1 (stereo not shown) [Compound 35, 11-(2-(6-methylpyridin-3-yl)ethyl)-7,8,9,9a,10,11-hexahydro-5H-pyrido[3′,2′:4,5]pyrrolo[3,2-f]indolizine]
- Percent Inhibition of ligand binding Serotonin 5-HT2A ([1]; 0.1 μM ligand concentration): 31%
- Percent Inhibition of ligand binding Dopamine D2L ([2]; 0.1 μM ligand conc.): −3%
- Percent Inhibition of ligand binding Serotonin 5-HT6 ([3]; 0.1 μM ligand concentration): −3%
- Percent Inhibition of ligand binding Serotonin 5-HT2C ([4]; 0.1 μM ligand concentration): 15%

SMILES: Cc1cnc2c(c1)c1c(n2CCc2ccc(C)nc2)CC2CCCN2C1 (stereo not shown) [Compound 36, 3-methyl-11-(2-(6-methylpyridin-3-yl)ethyl)-7,8,9,9a,10,11-hexahydro-5H-pyrido[3′,2′:4,5]pyrrolo[3,2-f]indolizine]
- Percent Inhibition of ligand binding Serotonin 5-HT2A ([1]; 0.1 μM ligand concentration): 35%
- Percent Inhibition of ligand binding Dopamine D2L ([2]; 0.1 μM ligand conc.): −3%
- Percent Inhibition of ligand binding Serotonin 5-HT6 ([3]; 0.1 μM ligand concentration): 34%
- Percent Inhibition of ligand binding Serotonin 5-HT2C ([4]; 0.1 μM ligand concentration): 19%

SMILES: Fc1ccc(CCn2c3c(c4cc(Cl)ccc42)CN2CCCC2C3)cc1 (stereo not shown) [Compound 2, 10-(4-fluorophenethyl)-7-chloro-2,3,5,10,11,11a-hexahydro-1H-indolizino[7,6-b]indole]
- Percent Inhibition of ligand binding Serotonin 5-HT2A ([1]; 1 μM ligand concentration): 41%
- Percent Inhibition of ligand binding Dopamine D2L ([2]; 1 μM ligand conc.): 13%
- Percent Inhibition of ligand binding Serotonin 5-HT6 ([3]; 1 μM ligand concentration): 19%
- Percent Inhibition of ligand binding Adrenergic α1D ([5]; 1 μM ligand conc.): 23%
- Percent Inhibition of ligand binding Serotonin 5-HT2C ([4]; 1 μM ligand concentration): 53%
